Measurements taken from US4525360A, “Anti-psychotic phenylindene derivatives and acid addition salts thereof” (Kefalas A/S, priority 1982, dated 1985).
pIC50: −log10 of the molar value. Counter-ions that a name gives are not always drawn.

Experiments:
methylphenidate = test: Methylphenidate antagonism, mice i.p.; assay type: in vivo; settings: Mus musculus, ip, read-out: MePh Antag. ED50 (ip)
Protocol: Methylphenidate antagonism (ED50 μmol/kg i.p.)
Perspex observation cages without bottom and lid, consisting of 5 sections each measuring 12×25×30 cm.
Two hours after injection of test substance, methylphenidate, 60 mg/kg, is injected s.c. After administration of methylphenidate the mice are placed in the observation cages, 2 in each cage, where they remain for exactly 1 hour. The cages are placed on corrugated paper, the corrugations facing upwards. It is examined whether the mice have been biting the corrugated paper or not.
The result is stated in fractions: 0/3, 1/3, 2/3 and 3/3 where 0, 1, 2 and 3 are the number of pairs which have not been biting on receipt of the dose in question.

[1] = Catalepsy wire mesh, rat, max.; assay type: in vivo, rats; settings: Rattus norvegicus, po, 6 h, read-out: Catalep. ED50 (po)
Protocol: Catalepsy wire mesh, rat, max. (ED50 μmol/kg p.o.)
A vertical wire netting (50 cm×49 cm). The meshes (openings) of the netting are square (1 cm×1 cm). The wire diameter is 2 mm.
The animals are labeled and used in groups of five. The test substance is administered orally (p.o.) at 4 dose levels selected from a fixed dose scale.
The animals are placed in the middle of the vertical wire netting 60, 120, 180, 240, 300 and 360 minutes after administration of the test compound. The animals are considered cataleptic when they remain immobile during a period of 15 seconds. This cataleptic reaction is designated +.
If the rats are "atonic" and passively slide down the wire mesh they are considered not cataleptic. If the animals climb up and down the wire mesh they are nor cataleptic. In both situations the designation - is used.

5-HT, rat fundus strip = test: 5-HT antagonism, rat fundus strip; settings: Rattus norvegicus, 10 min, read-out: 5HT rat-fundus-strip IC50
Protocol: 5-HT antagonism, rat fundus strip
5-hydroxytryptamine (5-HT).
Rats are killed by a blow on the head and exsanguinated. The stomach fundus is removed and carefully cleaned with Krebs solution at 30° C. The fundus is then stretched over a rounded end of a plastic rod about the thickness of a pencil, whereby the longitudinal direction of the muscle fibers is visible. The fundus is halved by carefully cutting in the central line and in the direction of these fibres. Along this incision two strips with a length of 15-25 mm and with width 1.5-2.5 mm are cut, one from each half of the fundus. The mucosa is then carefully removed. A thread is attached to each end of a strip. One thread is fixed to a pin in the bottom of the organ bath and the other thread is fixed to an isotonic transducer. The strip is kept under a tone of 1.5 to 2.0 g. […] Concentration response curves to 5-HT are obtained by adding 5-HT to the bath in increasing concentrations (0.1 ml of 10^-9 M resulting in 1.0×10^-11 M in the bath, 0.2 ml of 10^-9 M resulting in 3.0×10^-11 M, 0.1 ml of 10^-8 M resulting in about 1×10^-10 M, 0.2 ml of 10^-8 M resulting in about 3×10^-10 M--0.2 ml of 10^-4 resulting in about 3×10^-6 M in the bath). Each concentration of 5-HT is allowed to exert its maximal effect (1-10 min) before the next is added. When the maximal response is reached the tissue is carefully washed. The test substance is added to the bath for 10 min. before examining its effect on a new cumulative 5-HT concentration response curve. From the control concentration effect curve the Km for 5-HT is calculated.
The results are recorded as mean percentage inhibition.
Substrate concentration for 5-HT: 1.0×10^-9 M to 1.0×10^-8 M.
Michaelis-Menten constant for 5-HT is estimated each time.

D-2 receptors = molecular target: T1, D-2 receptors (Rattus norvegicus, UniProt P61169); test: 3H-spiroperidol binding to rat striatal membranes (D-2 receptors); settings: Table 1, read-out: 3H-Spiroperidol bindings DA-2 receptors IC50
T1 construct: The corpora striata are dissected out and homogenized; from tissue; host or cells: rat corpus striatum membranes
Protocol: 3H-spiroperidol binding to rat striatal membranes (D-2 receptors)
0.1% Ascorbic acid (icecold) made fresh every day
50 mM Tris buffer pH 7.7 (at 25° C.) (icecold) stored in the cold
50 mM Tris buffer pH 7.5 (at 25° C.), containing 0.2% ascorbic acid
(icecold) made fresh every day just before use
Mixed Tris buffer (icecold) made fresh every day just before use
96 ml 50 mM Tris pH 7.5 (at 25° C.) containing ascorbic acid
Whatman GF/B filters 25 mm
Spiroperidol[benzene ring-^3 H] approximately 30 Ci/mmol
from New England Nuclear. (Diluted daily to 5 nM in 0.1% ascorbic acid)
(§1) Rats are killed by guillutination, exsanguinated and their brains removed. The corpora striata are dissected out and homogenized (Ultra Turrax, 10 sec.) in 100 vol (w/v) icecold 50 mM buffer pH 7.7 (at 25° C.). The homogenate is centrifuged twice at 20.000 g (13.000 rpm) for 10 min at 4° C., with rehomogenization (Ultra Turrax, 10 sec.) of the intermediate pellet in fresh buffer. The pellet is homogenized (Ultra Turrax, 10 sec.) in 200 volumes (w/v) of icecold, freshly prepared mixed Tris buffer.
(§2) Incubation tubes in triplicate receive on ice 100 μl of drugs dissolved in 0.1% ascorbic acid, 100 μl of 5 nM^3 H-spiroperidol and 800 μl of the cold tissue suspension . The tubes are incubated at 37° C. for 10 min and rapidly filtered under vacuum through Whatman GF/B filters. The tubes are rinsed with 5 ml and thereafter the filters with 2×5 ml icecold 50 mM Tris buffer, pH 7.7 (at 25° C.). The radioactivity on the filters is determined by liquid scintillation counting after the addition of scintillation liquid (e.g. picofluor-15). The unspecific binding of ^3 H-spiroperidol is determined by incubating the samples with 10^-6M (+)butaclamol.
Each series consists of 15 triple samples (3 controls, 2 containing 10^-6M (+)butaclamol, and two series of test compounds in 5 concentrations).
The means of the controls and (+)butaclamol are calculated.

5-HT2 receptors = molecular target: T2, 5-HT2 receptors (Rattus norvegicus, UniProt P14842); test: 3H-spiroperidol binding to rat cortical membranes (5-HT2 receptors); settings: Table 1, read-out: 3H-Spiroperidol bindings 5-HT2 receptors IC50
T2 construct: Whole cortex is dissected out and homogenized; from tissue; host or cells: rat whole cortex membranes
Protocol: ^3 H-spiroperidol binding to rat cortical membranes (5-HT2 Receptors)
50 mM Tris buffer pH 7.7 (at 25° C.) (icecold) stored in the cold: 7.38 gram Trisma®--7.7/l.
Mixed Tris buffer (icecold) made fresh every day jut before use.
10^-5 M Mianserin: 3.01 mg mianserin-HCl/10 ml H2 O, Diluted 1:100.
3×10^-6 M Sulpiride: 3.41 mg sulpiride/10 ml H2 O, Diluted 0.3 ml to 100 ml.
Whatman GF/B filters 25 mm.
Spiroperidol[benzene ring--^3 H--] approx. 30 Ci/mmol from New England Nuclear
(Diluted daily to 5 nM in 3×10^-6 M sulpiride solution).
Ultra Turrax homogenizer.
as §1, with “Whole cortex is” for “The corpora striata are”, “min.” for “min”, “80” for “200”
as §2, with “in water,” for “in 0.1% ascorbic acid,”, “5 nM ^3” for “5 nM^3”, “cold membrane suspension.” for “cold tissue suspension .”, “10 min.” for “10 min”, “of 5 ml of picofluor-15.” for “of scintillation liquid (e.g. picofluor-15).”, “with 10^-6 M mianserine.” for “with 10^-6M (+)butaclamol.”
Each series consist of 15-16 triple samples (3 controls, 2-3 containing 10^-6 mianserine and two series of test compounds in 5 concentrations).
The means of the control samples and of the 10^-6 M mianserine samples are calculated.

T2 sequence (P14842 whole entry): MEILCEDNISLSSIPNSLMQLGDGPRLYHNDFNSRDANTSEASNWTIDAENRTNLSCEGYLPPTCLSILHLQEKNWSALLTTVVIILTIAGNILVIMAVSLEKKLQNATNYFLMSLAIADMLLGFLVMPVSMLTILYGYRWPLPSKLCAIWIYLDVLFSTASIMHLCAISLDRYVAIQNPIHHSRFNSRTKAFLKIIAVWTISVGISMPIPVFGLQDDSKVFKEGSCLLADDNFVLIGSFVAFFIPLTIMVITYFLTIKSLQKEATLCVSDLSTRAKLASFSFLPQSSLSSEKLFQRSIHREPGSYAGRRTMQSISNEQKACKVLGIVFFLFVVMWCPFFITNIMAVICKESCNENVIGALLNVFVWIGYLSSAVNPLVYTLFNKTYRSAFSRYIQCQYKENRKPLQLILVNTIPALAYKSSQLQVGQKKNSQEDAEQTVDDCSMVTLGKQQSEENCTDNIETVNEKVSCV
T1 sequence (P61169 whole entry): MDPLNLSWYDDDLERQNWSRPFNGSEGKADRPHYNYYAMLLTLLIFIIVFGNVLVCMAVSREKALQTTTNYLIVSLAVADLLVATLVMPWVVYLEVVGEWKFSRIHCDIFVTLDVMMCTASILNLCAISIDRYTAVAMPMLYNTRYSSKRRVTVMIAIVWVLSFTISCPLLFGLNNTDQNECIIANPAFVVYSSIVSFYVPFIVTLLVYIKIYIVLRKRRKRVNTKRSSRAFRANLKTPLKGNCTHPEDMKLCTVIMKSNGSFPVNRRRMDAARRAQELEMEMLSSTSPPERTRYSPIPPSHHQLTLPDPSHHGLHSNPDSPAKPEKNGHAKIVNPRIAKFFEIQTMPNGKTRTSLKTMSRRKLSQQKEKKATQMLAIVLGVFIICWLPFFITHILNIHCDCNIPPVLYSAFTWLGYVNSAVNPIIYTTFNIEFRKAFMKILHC

Compound | ED50 (methylphenidate) [µmol/kg] | ED50 [1] [µmol/kg] | pIC50 (5-HT, rat fundus strip) | pIC50 (D-2 receptors) | pIC50 (5-HT2 receptors)
OCCN1CCC(C2=CC(c3ccc(F)cc3)c3ccc(F)cc32)CC1 (centres unmarked) [Lu 19-158, hydrochloride] | 4.2 | 26 | 7.59 | 7.92 | 8.55
OCCN1CCN(CC/C=C2/c3ccccc3Sc3ccc(C(F)(F)F)cc32)CC1 [Cis(Z)-flupentixol, reference compound] | 0.14 | 2.1 | 5.98 | – | 7.89
CSc1ccc2c(c1)C(N1CCN(C)CC1)Cc1ccccc1S2 (centres unmarked) [Methiothepin, reference compound] | 2.5 | 2.3 | 7.24 | 8.59 | 8.17
Cc1ccc2c(c1)C(C1=CCN(CCO)CC1)=CC2c1ccc(F)cc1 (centres unmarked) [Lu 19-153, 3-(4'-Fluorophenyl)-1-(1-hydroxyethyl-1,2,3,6-tetrahydropyrid-4-yl)-6-methyl-1-indene, hydrobromide] | 0.39 | 1.4 | 7.47 | – | 8.34
Cc1ccc2c(c1)C(C1CCN(CCO)CC1)=CC2c1ccc(F)cc1 (centres unmarked) [Lu 20-008, 3-(4'-Fluorophenyl)-1-(1-hydroxyethyl-4-piperidyl)-6-methyl-1-indene, hydrochloride] | 0.64 | 2.3 | 7.80 | 8.05 | 8.40
O=C1NCCN1CCN1CCC(C2C=C(c3ccc(F)cc3)c3ccc(F)cc32)CC1 (centres unmarked) [Lu 20-053, 6-Fluoro-3-(4'-fluorophenyl)-1-(1-(2-imidazolidinon-1-ylethyl)-4-piperidyl)-2-indene] | 19.5 | > 94 | 7.16 | 7.08 | 7.51
OCCN1CC=C(C2=CC(c3ccc(F)cc3)c3ccc(C(F)(F)F)cc32)CC1 (centres unmarked) [Lu 20-004, 3-(4'-Fluorophenyl)-1-(1-hydroxyethyl-1,2,3,6-tetrahydropyrid-4-yl)-6-trifluoromethyl-1-indene, hydrobromide] | 1 | 1.3 | 5.49 | – | 7.46
CN1CCC(C2=CC(c3ccc(F)cc3)c3ccc(C(F)(F)F)cc32)CC1 (centres unmarked) [Lu 20-071, 3-(4'-Fluorophenyl)-1-(1-methyl-4-piperidyl)-6-trifluoromethyl-1-indene, hydrobromide] | 1.7 | 2 | 6.00 | – | 7.82
O=C(c1ccc(F)cc1)C1CCN(CCn2c(=O)[nH]c3ccccc3c2=O)CC1 [Ketanserin, reference compound] | – | – | < 5.00 | 5.64 | –
